Data taken from patent US5603943A, “Nasally administrable compositions” (Dott Research Laboratory, priority 1994, dated 1997).
Where “and” joins values, the source holds several entries; their conditions need not be identical. Identical values can stand only once.

Tests used:
[1] = Salmon calcitonin blood concentration, nasal powder with magnesium stearate (Test Example 4); format: in vivo, healthy male adults (human)
Procedure: A nasally administrable composition in powdery form was prepared by formulating salmon calcitonin as a physiologically active peptide at the rate of 200 MRC (IU) per 25 mg with magnesium stearate as a carrier having a mean particle size ranging from 40 to 45 μm.
(§1) The resulting composition was nasally administered once at a dose of 25 mg to three healthy male adults and the blood (2.5 ml) was collected from each of the tested adults prior to administration and then at 5, 10, 15, 20, 30, 45, 60, 90, 120 and 180 minutes after administration. The concentration of the salmon calcitonin in each -of the collected blood samples was assayed with a standard RIA assay kit.

[2] = Salmon calcitonin blood concentration, nasal powder with calcium carbonate (Test Example 5); format: in vivo, healthy male adults (human)
Procedure: A nasally administrable composition in powdery form was prepared by formulating salmon calcitonin as a physiologically active peptide at the rate of 200 MRC (IU) per 25 mg with calcium carbonate as a carrier having a mean particle size ranging from 40 to 45 μm.
as §1, with “of” for “-of”

[3] = Salmon calcitonin blood concentration, nasal powder with aluminum hydroxide (Test Example 6); format: in vivo, healthy male adults (human); details: for Concentration of salmon calcitonin in the blood: nasal 200 MRC (IU)/25 mg, individual cases No. 14-16 in order
Procedure: A nasally administrable composition in powdery form was prepared by formulating salmon calcitonin as a physiologically active peptide at the rate of 200 MRC (IU) per 25 mg with aluminum hydroxide as a carrier having a mean particle size ranging from 40 to 45 μm.
as §1, with “of” for “-of”

[4] = relative, among calcitonins; cited from earlier work
[5] = Salmon calcitonin blood concentration, nasal powder with hydroxyapatite (Test Example 3); format: in vivo, healthy male adults (human); details: for Concentration of salmon calcitonin in the blood: nasal 200 MRC (IU)/25 mg, individual cases No. 4-7 in order
Procedure: (§2) A nasally administrable composition in powdery form was prepared by formulating salmon calcitonin as a physiologically active peptide at the rate of 200 MRC (IU) per 25 mg with hydroxyapatite as a carrier having a mean particle size ranging from 40 to 45 μm.
as §1, with “four” for “three”, “of” for “-of”

[6] = Nasal absorption, clinical effect and irritation (general statement); format: in vivo
[7] = Salmon calcitonin blood concentration, nasal powder with hydroxyapatite (Test Example 2); format: in vivo, healthy male adults (human); details: for Concentration of salmon calcitonin in the blood: nasal 200 MRC (IU)/25 mg, individual cases No. 1-3 in order
Procedure: as §2
as §1, with “of” for “-of”

[8] = powder in specific carrier, nasal route

## salmon calcitonin
[1]
  absorption: high extent of absorption
[2]
  absorption: high extent of absorption
[3]; 0 min (predose)
  Concentration of salmon calcitonin in the blood: ~ 7 pg/ml
[3]; 5 min
  Concentration of salmon calcitonin in the blood: 19.75 pg/mL and 26.41 pg/mL and 32.23 pg/mL
[3]; 10 min
  Concentration of salmon calcitonin in the blood: 19.35 pg/mL and 34.82 pg/mL and 24.85 pg/mL
[3]; 15 min
  Concentration of salmon calcitonin in the blood: 14.97 pg/mL and 31.66 pg/mL and 18.68 pg/mL
[3]; 20 min
  Concentration of salmon calcitonin in the blood: ~ 7 pg/ml and 37.63 pg/ml and 12.92 pg/ml
[3]; 30 min
  Concentration of salmon calcitonin in the blood: 9.15 pg/ml and 24.79 pg/ml and ~ 7 pg/ml
[3]; 45 min
  Concentration of salmon calcitonin in the blood: ~ 8 pg/ml and 13.70 pg/ml and ~ 7 pg/ml
[3]; 60 min
  Concentration of salmon calcitonin in the blood: ~ 7 pg/ml and 12.12 pg/ml
[3]; nasal
  absorption: high extent of absorption
  concentration in the blood versus injection: simlar to that obtainable by injection
[4]
  stability: relatively low in stability
[5]
  absorption through the nasal cavity: high extent of absorption
[5]; 0 min (predose)
  Concentration of salmon calcitonin in the blood: ~ 7 pg/ml
[5]; 5 min
  Concentration of salmon calcitonin in the blood: 65.30 pg/mL and 66.02 pg/mL and 57.83 pg/mL and 72.72 pg/mL
[5]; 10 min
  Concentration of salmon calcitonin in the blood: 98.88 pg/mL and 95.22 pg/mL and 83.75 pg/mL and 130.21 pg/mL
[5]; 15 min
  Concentration of salmon calcitonin in the blood: 96.96 pg/mL and 106.69 pg/mL and 91.55 pg/mL and 139.54 pg/mL
[5]; 20 min
  Concentration of salmon calcitonin in the blood: 59.91 pg/mL and 102.60 pg/mL and 63.17 pg/mL and 122.29 pg/mL
[5]; 30 min
  Concentration of salmon calcitonin in the blood: 46.96 pg/mL and 71.13 pg/mL and 48.09 pg/mL and 91.38 pg/mL
[5]; 45 min
  Concentration of salmon calcitonin in the blood: 23.89 pg/mL and 57.42 pg/mL and 30.95 pg/mL and 45.91 pg/mL
[5]; 60 min
  Concentration of salmon calcitonin in the blood: 14.31 pg/mL and 33.21 pg/mL and 19.56 pg/mL and 15.62 pg/mL
[5]; 90 min
  Concentration of salmon calcitonin in the blood: ~ 7 pg/ml (2×) and 13.06 pg/ml and 10.39 pg/ml
[5]; 120 min
  Concentration of salmon calcitonin in the blood: ~ 7 pg/ml and 8.76 pg/ml
[5]; 180 min
  Concentration of salmon calcitonin in the blood: ~ 7 pg/ml
[5]; nasal
  time of maximum concentration: reaching maximum in a short time after administration
[6]; homogeneously dispersed in and adsorbed onto the carrier
  bioavailability and concentration in blood: high both in bioavailability and concentration in blood
[6]; [8]
  absorption into the body: well absorbed into the body
  clinical effects: high clinical effects
[7]; 0 min (predose)
  Concentration of salmon calcitonin in the blood: ~ 7 pg/ml
[7]; 5 min
  Concentration of salmon calcitonin in the blood: 55.50 pg/mL and 14.05 pg/mL and 76.25 pg/mL
[7]; 10 min
  Concentration of salmon calcitonin in the blood: 93.05 pg/mL and 44.12 pg/mL and 107.67 pg/mL
[7]; 15 min
  Concentration of salmon calcitonin in the blood: 49.84 pg/mL and 77.03 pg/mL and 118.26 pg/mL
[7]; 20 min
  Concentration of salmon calcitonin in the blood: 65.95 pg/mL and 59.36 pg/mL and 95.07 pg/mL
[7]; 30 min
  Concentration of salmon calcitonin in the blood: 21.08 pg/mL and 47.69 pg/mL and 102.78 pg/mL
[7]; 45 min
  Concentration of salmon calcitonin in the blood: 12.54 pg/mL and 24.68 pg/mL and 60.68 pg/mL
[7]; 60 min
  Concentration of salmon calcitonin in the blood: 13.50 pg/mL and 19.43 pg/mL and 42.97 pg/mL
[7]; 90 min
  Concentration of salmon calcitonin in the blood: 7.92 pg/ml and ~ 7 pg/ml and 21.78 pg/ml
[7]; 120 min
  Concentration of salmon calcitonin in the blood: ~ 7 pg/ml and 12.75 pg/ml
[7]; 180 min
  Concentration of salmon calcitonin in the blood: ~ 7 pg/ml
[7]; nasal
  absorption into the blood: high degree of absorption
